According to patent US20240277682A1, “PHARMACEUTICAL HYDRONIDONE FORMULATIONS FOR DISEASES” (Gyre Therapeutics, Inc., priority 2021, published 2024):

Assays:
liver fibrosis = experiment: HSA-induced and DMN-induced liver fibrosis in rats; format: in vivo
Description: Hydronidone anti-fibrotic effects were evaluated in several animal models of liver fibrosis, such as human serum albumin (HSA)-induced liver fibrosis in rats, dimethyl nitrosamine (DMN)-induced liver fibrosis in rats, and carbon tetrachloride (CCl4)-induced liver fibrosis in mice. […] In the CCl4-induced liver fibrosis in mice, Hydronidone effects were the most prominent at the doses of 3-10 mg/kg/day, although some effects were also shown at the dose of 1 mg/kg/day. In some embodiments, this dose range corresponds to human equivalent dose (HED) range of 15-50 mg. […] The HED of these rat doses are in the range of 100-2,400 mg which were all tested as safe in Phase I clinical trials of Hydronidone, with the 100 mg dose being […] the maximum daily dose of 360 mg (administered as 120 mg TID) administered to the subjects with liver fibrosis due to chronic Hepatitis B in the ongoing Phase II clinical study of efficacy and safety of Hydronidone in China.

[1] = Crossover study of food effect on safety, tolerability and PK of a single oral dose (Example 8); format: in vivo, human
Description: This was a randomized, open-label, 2-period, crossover PK study of effects of food on safety, tolerability, and PK of single oral doses of Hydronidone in healthy Chinese subjects. The PK parameters of the M3 and M4 metabolites of Hydronidone, in presence or absence of food were also determined.
Twelve healthy Chinese subjects were enrolled, dosed and in this inpatient study. They were randomly assigned in two groups/periods to receive a single oral 600 mg (3×200 mg) dose of Hydronidone either under fasted, or fed (high fat) conditions. Within each treatment period, PK blood samples were collected at: 0 (pre-dose), 10 min, 20 min, 30 min, 40 min, 1 hr, 1.5 hr, 2 hr, 3 hr, 4 hr, 5 hr, 6 hr, 8 hr, 10 hr, 12 hr, 16 hr, and 24 hr, and 48 hr post-dose. The wash-out period between the two periods in this trial was 48 hours.

[2] = In vitro drug-drug interaction with Entecavir and Lamivudine in human liver microsomes
Description: Entecavir and Lamivudine, were used concomitantly with Hydronidone, or individually, in the in vitro drug interaction experiments, in respective concentrations of each of 1.5 mM.

[3] = system: liver fibrosis due to chronic Hepatitis B; experiment: Phase II study in subjects with liver fibrosis due to chronic Hepatitis B, 52 weeks, Entecavir basic treatment (Examples 11-21); format: in vivo, human
Description: This is a Phase II, randomized, double-blind, placebo-controlled, Entecavir-Basic Treatment, multi-center, dose-ranging study on the efficacy and safety of Hydronidone when administered to Chinese subjects with liver fibrosis due to chronic Hepatitis B for 52 consecutive weeks.
Approximately 240 eligible subjects, approximately 60 subjects per dose cohort, are planned to be enrolled in the study and treated daily with Hydronidone oral doses of 30 mg, 60 mg. or 120 mg TID (total daily doses of […], […], and 360 mg, respectively) for 52 consecutive weeks or placebo, concomitantly with basic anti-viral treatment with Entecavir at a daily dose of 0.5 mg. In parallel, a group of 12 subjects will be evaluated for PK.

[4] = In vitro Phase I metabolism in human liver microsomes; format: in vitro ADME
Description: The in vitro Phase I metabolism of hydronidone was evaluated by incubating human liver microsomes with hydronidone for 60 minutes.

[5] = system: CCl4 and western diet (WD) induced NASH; experiment: (CCl4+HFD) induced NASH model in mice; format: in vivo
Text: The total NASH score was lower at dosage of 15 milligram per kilogram (mpk) and 50 mpk.

[6] = Double-blind placebo-controlled tolerability study of single and multiple ascending doses in healthy subjects (Example 6); format: in vivo; conditions: for ALT / AST: one subject
Text: The main objective of this study was to evaluate the tolerability of single and multiple ascending doses of Hydronidone in healthy subjects to support further Phase 1 studies as well to provide supportive information for dosage regimen in Phase II clinical trials.
This was a randomized, double-blind, placebo-controlled, in-patient study of single and multiple escalating doses of Hydronidone in healthy Chinese male and female subjects, 18-45 years of age, satisfying all inclusion and exclusion criteria. Hydronidone 100 mg and 200 mg capsule dosage strengths were used in the study. In every cohort, the subjects were randomly assigned to Hydronidone or placebo at a ratio of 3:1.
The single-dose component of the trial included 30 subjects that received 100 mg, 200 mg, 400 mg, 600 mg and 800 mg of Hydronidone, respectively (6 subjects/cohort). The post-dose observations were performed 24 hrs following the dosing. All subjects have completed the trial. […] Mild transient dizziness following administration of the test article was reported in one subject in each of the 800 mg Hydronidone and placebo cohorts. The dizziness resolved on its own, without sequelae. The post-dose values of some of the laboratory parameters were abnormal, both in Hydronidone and placebo groups. However, these changes were not considered clinically significant.
The multiple-dose component of the trial included 20 subjects assigned to receive 600 mg (8 subjects) three times per day (TID) (total daily dose of 1800 mg), or 800 mg of Hydronidone (12 subjects) TID (total daily dose of 2400 mg) for ten (10) consecutive days. Due to several cases of AEs of hypertriglyceridemia (4 out of 8 subjects) observed in the Hydronidone 600 mg TID dose group, the subjects (n=8) in the Hydronidone TID 800 mg dose group were divided into two subgroups, each comprising of 4 subjects. […] Due to inadvertent omission of the blood glucose test in the first sub-group (all four subjects) of the Hydronidone 800 mg TID dose group at the final study visit, per Principal Investigator decision, the enrollment was extended to include new four (4) subjects, increasing the total number of subjects in this dose group to 12. The safety evaluations were performed pre-dose, on the Day 5 of dosing, and 24 hr after the last dose of the 10-day dosing period.

[7] = single oral 600 mg dose of Hydronidone, fed vs fasted
[8] = 800 mg TID, fifth day of dosing
[9] = 800 mg TID, repeated test on study day 6

Cc1ccc(=O)n(-c2ccc(O)cc2)c1 [Hydronidone, N-(4-hydroxyphenyl)-5-Methyl-2-pyridone]
anti-fibrotic effect (level of fibrosis, hydroxyproline, ALT, AST) (liver fibrosis; HSA- and DMN-induced liver fibrosis in rats): potent anti-fibrotic effect | anti-fibrotic effect compared with silymarin extract (positive control) (liver fibrosis; rats): comparable or more potent than silymarin extract | dose range in which anti-fibrotic effects were shown (liver fibrosis; rats, depending on the model): 10 to 250 mg/kg/day | effect of food (high-fat meal) on Cmax [1, 7]: decreasing their Cmax values | effect of food (high-fat meal) on rate of absorption [1, 7]: delayed the rate of absorption | safety and tolerability ([1]; single oral 600 mg dose, fed or fasted): safe and well tolerated, without SAEs or AEs reported | role of liver metabolism as metabolic pathway [2]: the liver metabolism is not the main Hydronidone metabolic pathway | Ishak score improvement in patients of significant fibrosis ([3]; 52 weeks): consistent with the results of primary endpoint analysis | improvement in HBeAg(−) vs HBeAg(+) patients ([3]; 52 weeks): better than in HbeAg(+) patients | response in HBV DNA+ patients ([3]; HBV DNA+ after 52 weeks Entecavir therapy, Ishak>3): all patients (Ishak>3) responded | Ishak score ≥1 (primary endpoint) ([3]; after 52 weeks of therapy, with Entecavir): significantly lower the Ishak score | intra group Ishak score change ([3]; after 52 weeks, all drug groups): statistically significant decline of Ishak score≥1 | change of liver stiffness measurement LSM ([3]; after 52 weeks, all drug groups, intra group P<0.01): decline of LSM(kPa) | Ishak score changes ([3]; baseline HBeAg (+) patients after 52 weeks): statistical significant changes when dose groups are combined | Ishak score changes ([3]; baseline HBeAg (−) patients after 52 weeks): statistical significant changes when dose groups are combined | fibrosis in patients of significant fibrosis and cirrhosis ([3]; combination of 270 mg and 360 mg groups): can improve fibrosis | fibrosis in patients of significant fibrosis and cirrhosis ([3]; combination of all drug groups): can improve fibrosis | LSM scores ([3]; combination of drug groups, Advanced Fibrosis (Ishak≥4)): showed statistical significance | best dose group (patients of significant fibrosis) ([3]; total daily dose, 52 weeks): 270 mg | formation of metabolites [4]: no formation of metabolites was observed | total NASH score ([5]; 15 milligram per kilogram (mpk)): lower | fibrosis and cell ballooning (H&E staining) ([5]; 15 mpk): significantly inhibited | fibrosis and cell ballooning (H&E staining) ([5]; 50 mpk): significantly inhibited | total NASH score ([5]; 50 mpk): lower | potency compared with pirfenidone ([5]; NASH model in mice): more potent than pirfenidone | effect on CCl4 and western diet (WD) induced NASH (H&E staining) ([5]; mice): protective effect | instances of hypertriglyceridemia ([6]; 600 mg TID, 10 days): 3 instances | number of AEs reported ([6]; 600 mg TID, 10 days): 7 AEs | instances of hyperlipidemia ([6]; 800 mg TID, 10 days): 3 instances | instances of liver dysfunction ([6]; 800 mg TID, 10 days): 3 instances | number of AEs reported ([6]; 800 mg TID, 10 days): 14 AEs | deaths and SAEs ([6]; multiple-dose component, 600 or 800 mg TID, 10 days): No deaths nor SAEs were reported | ALT [6, 8]: 79 U/L | AST [6, 8]: 47 U/L | ALT [6, 9]: 101 U/L | AST [6, 9]: 61 U/L | subjects with mild transient dizziness ([6]; single dose 800 mg cohort): one | safety and tolerability ([6]; single dose 100, 200, 400, 600, 800 mg, healthy subjects): safe and well tolerated at all doses tested | deaths and serious adverse events ([6]; single-dose component): No deaths nor serious adverse events (SAEs) were reported
